Measured values taken from patent US20060252830A1, “Method for the treatment of magnesium and potassium deficiencies” (priority 2005, published 2006).

Columns and labels:
[1] = system: patients with atrial fibrillation; conditions: oral; two 6 month studies; cited from earlier work
[2] = system: patients receiving sotalol or dofetilide; assay: Randomized, double-blind, placebo-controlled study: 12-lead ECG intervals in people taking dofetilide or sotalol; assay type: in vivo, human
Method: (§1) A randomized, double-blind, placebo-controlled study was performed at Hartford Hospital. People taking dofetilide or sotalol therapy for at least 5 half-lives were eligible for inclusion. […] After enrollment, people who discontinued their sotalol or dofetilide or altered their dosage of these drugs were excluded as well. Thirty-four participants were enrolled in the study. Three were subsequently excluded because the antiarrhythmics they were using were discontinued or the dose of the antiarrhythmics changed during the study. Given the known baseline differences in QTc intervals among men and women, each gender was randomized separately using stratified allocation. Patients completing the study (n=30) were well matched for baseline characteristics, which are reflected in Table 1. Intracellular concentrations of essential elements were available for 19 subjects. Overall 63.2% of patients (regardless of experimental group) had baseline intracellular magnesium concentrations below the normal reference range of 33.9-41.9 mEq/IU with an average level of 32.6±2.2 mEq/IU. All of the other baseline intracellular elements evaluated (phosphorus, chloride, calcium, potassium, and sodium) were within the reference range although the phosphorus was at the top of the range (average=16.7±2.8 mEq/IU with reference range of 14.2-17.0 mEq/IU).
(§2) Participants received three tablets of magnesium L-lactate (Mag-Tab SR®; Niche Pharmaceuticals; Roanoke, Tex.) or matching placebo twice daily (504 mg of elemental magnesium daily) for 48 hours (i.e. t=0, 12 h, 24 h, 36 h, and 48 h). A 12-lead electrocardiogram (ECG) was recorded at 25 mm/sec at rest prior to initiation of treatment (i.e. baseline) and at 3 and 51 hours after the first dose of magnesium (i.e. t=3 h and t=51 h) for each participant. A single blinded investigator read all ECGs using a precision ruler of 0.5 mm scale (Schlaedler-Quinzel, Inc. Parsippany, N.J.).
QT intervals were measured from the onset of the Q wave (or R/S wave if there was no Q wave) to the end of the T wave where it merges with the isoelectric baseline. The beginning and end of the QRS complex were determined by visual inspection, whereas the end of the T-wave was obtained by extrapolating the descending slope of the T-wave to the isoelectric baseline. When a U wave interrupts the down-sloping of the T-wave, the visible portion of the T wave was extrapolated to the T-P baseline to define the end of the T-wave. The R-R interval was measured from the peak of one R wave to the peak of an adjacent R wave. The QTc interval was corrected for heart rate using Bazett's formula [QTc=QT/(RR)^1/2].
Continuous data was expressed by a mean±SD. A p value less than 0.05 was considered statistically significant. The primary analysis was the intergroup comparisons of the change in QTc interval from baseline at 3 hours and 51 hours using Bazett's formula. Evaluations of the QRS, QT, and RR intervals were compared between groups at each time period as well. Mann-Whitney tests were used for all statistical analyses of continuous ECG data. Intracellular element intragroup comparisons were performed with a paired t-test. Chi^2 or Fischer's Exact tests were used for categorical comparisons. Statistical analysis was performed using SPSS version 5.

[3] = Intracellular elemental concentrations in sublingual buccal smears (EXAtest, energy-dispersive X-ray analysis); assay type: in vivo, human; conditions: p=0.002; all patients below the normal reference range at baseline reached it
Method: as §1, with “Patients completing the study (n=30) were well matched for baseline characteristics, which are reflected in Table 1. Intracellular concentrations of essential elements were available for 19 subjects. Overall 63.2% of patients (regardless of experimental group) had baseline intracellular magnesium concentrations below the normal reference range of 33.9-41.9 mEq/IU with an average level of 32.6±2.2 mEq/IU.” left out
as §2, with “A single blinded investigator read all ECGs using a precision ruler of 0.5 mm scale (Schlaedler-Quinzel, Inc. Parsippany, N.J.).” left out

SMILES	maintaining sinus rhythm [1]	QT interval reduction ([2]; 3 hours) [ms]	reduction in the QTc interval from baseline ([2]; 3 hours, group receiving diuretics) [ms]	reduction in the QTc interval from baseline ([2]; 3 hours, no diuretic group) [ms]	reduction in the QTc interval from baseline ([2]; 51 hours, group receiving diuretics) [ms]	reduction in the QTc interval from baseline ([2]; 51 hours, no diuretic group) [ms]	change of intracellular magnesium concentrations after magnesium supplementation [3]
[Mg+2].[OH-].[OH-] [magnesium hydroxide]	ineffective	–	–	–	–	–	–
C[C@H](O)C(=O)[O-].C[C@H](O)C(=O)[O-].O.O.[Mg+2] [Magnesium L-lactate, magnesium l-lactate dihydrate]	–	15	51.1 ± 42	25.5 ± 27.9	24.7 ± 24.3	26.2 ± 27.4	rose significantly
